The results in this text go back to patent publication US12617770B2, “IRAK inhibitor and preparation method therefor and use thereof” (WUHAN CREATERNA SCIENCE AND TECHNOLOGY CO., LTD., priority 2019, dated 2026).

For this assay, the target named is T1, human IRAK4 (Homo sapiens, UniProt Q9NWZ3).
T1 construct: purchased Cama (so in the source)
T1 sequence (Q9NWZ3 1-460): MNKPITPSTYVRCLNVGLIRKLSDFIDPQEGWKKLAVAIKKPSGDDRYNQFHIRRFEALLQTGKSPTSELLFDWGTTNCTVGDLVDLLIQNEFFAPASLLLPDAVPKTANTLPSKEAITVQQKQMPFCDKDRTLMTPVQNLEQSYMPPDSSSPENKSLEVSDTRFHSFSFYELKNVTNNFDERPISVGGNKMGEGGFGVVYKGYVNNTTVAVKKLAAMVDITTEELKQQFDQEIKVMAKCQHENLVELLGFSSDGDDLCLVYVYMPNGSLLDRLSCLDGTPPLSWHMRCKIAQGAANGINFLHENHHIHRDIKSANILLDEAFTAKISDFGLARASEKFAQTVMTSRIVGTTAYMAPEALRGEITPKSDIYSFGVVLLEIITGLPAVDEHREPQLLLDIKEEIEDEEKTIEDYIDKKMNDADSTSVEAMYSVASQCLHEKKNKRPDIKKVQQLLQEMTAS
Briefly: IRAK4 MSA (Mobility-Shift Assay) at Km concentration of ATP. The format is biochemical. The settings on record: GST-IRAK4 1 nM, ATP 37 μM (Km); read-out: IC50 for inhibiting human IRAK4 activity. The method, then:
A recombinant fusion protein of N-terminal GST (glutathione-S-transferase) and human IRAK4 was used as enzyme (GST-IRAK4, kinase IRAK4 (Cama, CAT No. 09-145)) at a final concentration of 1 nM; ATP (Sigma. CAT No. A7699-1G) was at a final concentration of 37 μM; • the substrates used for the kinase reaction were 5-FAM (5-carboxyfluorescein)-labeled polypeptide (5-FAM-[…]-COOH) and substrate peptide FAM-P8 (GL Biochem, CAT No. 112396) at final concentrations of 5 μM.
In this assay, 500 μM stock solutions of the compounds were prepared in 100% DMSO, and serially 4-fold diluted to the 10th concentration gradient with 100% DMSO, followed by a 10-fold dilution in the compound buffer (50 mM HEPES, pH 7.5, 0.00015% Brij-35) to give intermediate dilutions of the compounds at a final concentration of 10 μM−0.04 nM containing 10% DMSO. 5 μL of the intermediate dilution was transferred into a black 384-well plate.
IRAK4 was diluted to 2.5 nM in the kinase buffer (50 mM HEPES, pH 7.5, 0.00015% Brij-35, 2 mM DTT). 10 μL of the IRAK4 dilution was transferred to the 384-well plate and co-incubated with the compound for 10-15 min.
The substrate and ATP were diluted to 12.5 μM and 92.5 μM with reaction buffer (50 mM HEPES, pH 7.5, 0.00015% Brij-35, 10 mM MgCl2), respectively. 10 μL of the dilution was transferred to a 384-well plate and incubated at 28° C. for 1 h. The reaction was terminated by adding 25 μL of 50 mM EDTA to the 384-well plate.
The inhibition rate of IRAK4 by the compounds was calculated by measuring the rate of phosphorylated substrate using a Caliper EZ Reader (PerkinElmer) and the IC50 was calculated by XL-fit software. […] In particular, some exemplary compound activity values are as follows: […]

In general, IC50 refers to the concentration that inhibits the measured activity by half. In the case of `COc1cc2nn([C@H]3CC[C@](C)(O)CC3)cc2cc1NC(=O)c1cccc(C2CC2)[n+]1[O-]` [Compound 002, 2-cyclopropyl-6-((2-((1r,4r)-4-hydroxy-4-methylcyclohexyl)-6-methoxy-2H-indazol-5-yl)carbamoyl) Pyridine 1-oxide], the IC50 turned out to be 3.7 nM.

Turning to `Cc1cccc(C(=O)Nc2cc3cn([C@H]4CC[C@](C)(O)CC4)nc3cc2N(C)C)[n+]1[O-]` [Compound 010, 2-((6-(dimethylamino)-2-((1r,4r)-4-hydroxy-4-methylcyclohexyl)-2H-indazol-5-yl)carbamoyl)-6-methylpyridine 1-oxide], the IC50 was 11 nM.

As for `COc1cc2nn([C@H]3CC[C@H](O)CC3)cc2cc1NC(=O)c1cccc(C(C)C)[n+]1[O-]` [Compound 015, 2-((2-((1r,4r)-4-hydroxycyclohexyl)-6-methoxy-2H-indazol-5-yl)carbamoyl)-6-isopropylpyridine 1-oxide], the IC50 was 5.4 nM.

As for `Cc1cccc(C(=O)Nc2cc3cn([C@H]4CC[C@H](O)CC4)nc3cc2OCC2CC2)[n+]1[O-]` [Compound 019, 2-((6-(cyclopropylmethoxy)-2-((1r,4r)-4-hydroxycyclohexyl)-2H-indazol-5-yl)carbamoyl)-6-methylpyridine 1-oxide], the IC50 is 8.1 nM.

`COc1cc2nn([C@H]3CC[C@@](O)(C4CC4)CC3)cc2cc1NC(=O)c1cccc(C)[n+]1[O-]` [Compound 025, 2-((2-((1r,4r)-4-cyclopropyl-4-hydroxycyclohexyl)-6-methoxy-2H-indazol-5-yl)carbamoyl)-6-methylpyridine 1-oxide]: the IC50 stood at 13 nM.

For the compound `COc1cc2nn([C@H]3CC[C@@](O)(CC#N)CC3)cc2cc1NC(=O)c1cccc(C)[n+]1[O-]` [Compound 175, 2-((2-((1r,4r)-4-(cyanomethyl)-4-hydroxycyclohexyl)-6-methoxy-2H-indazol-5-yl)carbamoyl)-6-methylpyridine 1-oxide], the concentration for half-maximal inhibition (IC50) is 7.1 nM.

For `COc1cc2nn([C@H]3CC[C@@](O)(CC#N)CC3)cc2cc1NC(=O)c1cccc(C2CC2)[n+]1[O-]` [Compound 176, 2-((2-((1r,4r)-4-(cyanomethyl)-4-hydroxycyclohexyl)-6-methoxy-2H-indazol-5-yl)carbamoyl)-6-cyclopropylpyridine 1-oxide], the IC50 was found to be 4.3 nM.

As for `C#C[C@]1(O)CC[C@H](n2cc3cc(NC(=O)c4cccc(C)[n+]4[O-])c(OC)cc3n2)CC1` [Compound 187, 2-((2-((1r,4r)-4-ethynyl-4-hydroxycyclohexyl)-6-methoxy-2H-indazol-5-yl)carbamoyl)-6-methylpyridine 1-oxide], the IC50 came out at 9.2 nM.

For the compound `COc1cc2nn([C@H]3CC[C@@H](O)CC3)cc2cc1NC(=O)c1cccc(C2CC2)[n+]1[O-]` [Compound 218, 2-cyclopropyl-6-((2-((1s,4s)-4-hydroxycyclohexyl)-6-methoxy-2H-indazol-5-yl)carbamoyl)pyridine 1-oxide], the IC50 was 8.3 nM.

For `CCOc1cc2nn([C@H]3CC[C@@H](O)CC3)cc2cc1NC(=O)c1cccc(C)[n+]1[O-]` [Compound 220, 2-((6-ethoxy-2-((1s,4s)-4-hydroxycyclohexyl)-2H-indazol-5-yl)carbamoyl)-6-methylpyridine 1-oxide], the IC50 was 14 nM.

On to `COc1cc2nn(C3CCCC3)cc2cc1NC(=O)c1cccc(C)[n+]1[O-]` [Compound 284, 2-((2-cyclopentyl-6-methoxy-2H-indazol-5-yl)carbamoyl)-6-methylpyridine 1-oxide], for which the IC50 was 28 nM.

Take `COc1cc2nn(C3CCCCC3)cc2cc1NC(=O)c1cccc(C)[n+]1[O-]` [Compound 285, 2-((2-cyclohexyl-6-methoxy-2H-indazol-5-yl)carbamoyl)-6-methylpyridine 1-oxide]: the IC50 worked out at 5.9 nM.

On to `COc1cc2nn(C3CCC(F)(F)CC3)cc2cc1NC(=O)c1cccc(C)[n+]1[O-]` [Compound 286, 2-((2-(4,4-difluorocyclohexyl)-6-methoxy-2H-indazol-5-yl)carbamoyl)-6-methylpyridine 1-oxide], for which the IC50 amounted to 14 nM.
